Among the data in publication PMC3953729 (FEBS Open Bio, 2014) are Kd values, retold here.

Each structure is given as a SMILES string.

For test [1], the target named is cyclohexanone monooxygenase (CHMO) (Acinetobacter johnsonii, UniProt P12015, L323C/A325C). To be noted: oxidised enzyme, engineered disulfide formed.
The target in test [2] is cyclohexanone monooxygenase (CHMO) (Acinetobacter johnsonii, UniProt P12015). In words: FAD absorbance change on titration. The class given is binding.

A word on the Kd: it is the constant that tells how readily two partners part at equilibrium. A low value points to a tighter complex. On to `NC(=O)c1ccc[n+]([C@@H]2O[C@H](COP(=O)(O)OP(=O)(O)OC[C@H]3O[C@@H](n4cnc5c(N)ncnc54)[C@H](OP(=O)(O)O)[C@@H]3O)[C@@H](O)[C@H]2O)c1` [NADP^+], for which the Kd in test [1] was found to be 15 µM; in test [2] it was 28 µM.
